Assay results reported in patent US6355799B1, “Substituted benzene compounds, process for their preparation, and herbicidal and defoliant compositions containing them” (ISK Americas Incorporated, priority 1997, dated 2002).

Experiments:
Format in all cases: in vivo
[1] = test system: green foxtail (Setaria viridis, SETVI); test: Pre-emerge test, greenhouse herbicide activity screening; settings: pre-emerge, 14 days after application, scale 0-100
Description: (§1) A standard greenhouse herbicide activity screening system was used to evaluate the herbicidal efficacy and crop safety of these test compounds. Seven broadleaf weed species including redroot pigweed (Amaranthus retroflexus, AMARE, velvetleaf (Abutilon theophrasti, ABUTH), sicklepod (Cassia obtusifolia, CASOB), ivyleaf morningglory (Ipomoea hederacea, IPOHE), lambsquarters (Chenopodium album, CHEAL), common ragweed (Ambrosia artemisizfolia L., AMBEL), and cocklebur (Xanthium strumarium, XANST) were used as test species. Four grass weed species including green foxtail (Setaria viridis, SETVI), barnyardgrass (Echinochloa crus-galli, ECHCG), johnsongrass (Sorghum halepense, SORHA), and large crabgrass (Digitaria sanguinalis, DIGSA) were also used. In addition, three crop species, field corn (Zea mays L., var. Dekalb 535, CORN), soybean (Glycine max L., var. Pella 86, SOY), and is upland rice (Oryza sp., var. Tebonnet, RICE) were included.
(§2) All plants were grown in 10 cm square plastic pots which were filled with a sandy loam soil mix. For pre-emerge tests, seeds were planted one day prior to application of the test compounds. For post-emerge tests, seeds were planted 8-21 days prior to the test to allow emergence and good foliage development prior to application of the test substances. At the time of the post-emerge application, plants of all species were usually at the 2-3 leaf stage of development.
(§3) All test compounds Were dissolved in acetone and applied to the test units in a volume of 187 l /ha. Test materials were applied at rates ranging from 15 g ai/ha to 1000 g ai/ha using a track sprayer equipped with a TJ8001E even flow flat fan spray nozzle. Plants were arranged on a shelf so that the top of the canopy (post-emerge) or top of the soil surface (pre-emerge) was 40-45 cm below the nozzle. Pressurized air was used to force the test solution through the nozzle as it was mechanically advanced (via electrically driven chain drive) over the top of all test plants/pots. This application simulates a typical commercial field herbicide application.
(§4) In the post-emerge test, a commercial non-ionic surfactant was also included (0.25% v/v) to enhance wetting of the leaf surfaces of target plants. Immediately after application, test units of the pre-emerge applications were watered at the soil surface to incorporate the test materials. Subsequently, these test units were bottom-watered. Post-emerge test units were always bottom-watered.
(§5) At 14 days after application of the test materials, phytotoxicity ratings were recorded. A rating scale of 0-100 was used as previously described in Research Methods in Weed Science, 2nd edition, B. Truelove, Ed., Southern Weed Science Society, Auburn University, Auburn, Ala. 1977. Briefly, “0” corresponds to no damage and “100” corresponds to complete death of all plants in the test unit. This scale was used both to determine efficacy against weed species and damage to crop species. Herbicide activity data for various compounds of this invention, which are shown by compound No. in Tables 1-8, are shown in Tables 11 and 12.

[2] = test system: large crabgrass (Digitaria sanguinalis, DIGSA); test: as above; settings: pre-emerge, 14 days after application, scale 0-100
Description: as §1, §2, §3, §4, §5

[3] = test system: sicklepod (Cassia obtusifolia, CASOB); test: as above; settings: pre-emerge, 14 days after application, scale 0-100
Description: as §1, §2, §3, §4, §5

[4] = test system: ivyleaf morningglory (Ipomoea hederacea, IPOHE); test: as above; settings: pre-emerge, 14 days after application, scale 0-100
Description: as §1, §2, §3, §4, §5

[5] = test system: lambsquarters (Chenopodium album, CHEAL); test: as above; settings: pre-emerge, 14 days after application, scale 0-100
Description: as §1, §2, §3, §4, §5

[6] = test system: barnyardgrass (Echinochloa crus-galli, ECHCG); test: as above; settings: pre-emerge, 14 days after application, scale 0-100
Description: as §1, §2, §3, §4, §5

[7] = test system: velvetleaf (Abutilon theophrasti, ABUTH); test: as above; settings: pre-emerge, 14 days after application, scale 0-100
Description: as §1, §2, §3, §4, §5

[8] = test system: field corn (Zea mays L., var. Dekalb 535, CORN); test: Pre-emerge test, crop safety; settings: pre-emerge, 14 days after application, scale 0-100
Outline: (§6)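 Fourteen days after spraying, crop and weed injury was graded visually from 0, no effect, to 100, every plant dead. Test substances were dissolved in acetone and applied at 15–1000 g ai/ha with a flat-fan nozzle. Application was either pre-emergence, one day after sowing, or post-emergence at the 2–3 leaf stage.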

[9] = test system: upland rice (Oryza sp., var. Tebonnet, RICE); test: Pre-emerge test, crop safety; settings: pre-emerge, 14 days after application, scale 0-100
Outline: as §6

[10] = test system: redroot pigweed (Amaranthus retroflexus, AMARE); test: Pre-emerge test, greenhouse herbicide activity screening; settings: pre-emerge, 14 days after application, scale 0-100
Outline: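 Plants grown in 10 cm pots of sandy loam mix received acetone-dissolved compounds through a moving flat-fan nozzle. Doses ranged from 15 to 1000 g ai/ha. Pre-emerge pots were seeded one day earlier, post-emerge pots 8–21 days earlier. Fourteen days on, each pot was graded 0–100 for damage.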

[11] = test system: green foxtail (Setaria viridis, SETVI); test: Post-emerge test, greenhouse herbicide activity screening; settings: post-emerge, 14 days after application, rating scale 0-100
Description: as §1, §2, §3, §4, §5

[12] = test system: large crabgrass (Digitaria sanguinalis, DIGSA); test: as above; settings: post-emerge, 14 days after application, rating scale 0-100
Description: as §1, §2, §3, §4, §5

[13] = test system: sicklepod (Cassia obtusifolia, CASOB); test: as above; settings: post-emerge, 14 days after application, rating scale 0-100
Description: as §1, §2, §3, §4, §5

[14] = test system: ivyleaf morningglory (Ipomoea hederacea, IPOHE); test: as above; settings: post-emerge, 14 days after application, rating scale 0-100
Description: as §1, §2, §3, §4, §5

[15] = test system: redroot pigweed (Amaranthus retroflexus, AMARE); test: as above; settings: post-emerge, 14 days after application, rating scale 0-100
Description: as §1, §2, §3, §4, §5

[16] = test system: lambsquarters (Chenopodium album, CHEAL); test: as above; settings: post-emerge, 14 days after application, rating scale 0-100
Description: as §1, §2, §3, §4, §5

[17] = test system: barnyardgrass (Echinochloa crus-galli, ECHCG); test: as above; settings: post-emerge, 14 days after application, rating scale 0-100
Description: as §1, §2, §3, §4, §5

[18] = test system: velvetleaf (Abutilon theophrasti, ABUTH); test: as above; settings: post-emerge, 14 days after application, rating scale 0-100
Description: as §1, §2, §3, §4, §5

[19] = test system: field corn (Zea mays L., var. Dekalb 535, CORN); test: Post-emerge test, crop safety; settings: post-emerge, 14 days after application, rating scale 0-100
Outline: (§7)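 Compounds in acetone were track-sprayed at 15-1000 g ai/ha (187 l/ha) on sandy loam pots: pre-emerge one day after seeding, post-emerge at 2-3 leaf stage with 0.25% v/v non-ionic surfactant. Phytotoxicity was rated 14 days later on a 0 (no damage) to 100 (complete death) scale.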

[20] = test system: upland rice (Oryza sp., var. Tebonnet, RICE); test: Post-emerge test, crop safety; settings: post-emerge, 14 days after application, rating scale 0-100
Outline: as §7

## COc1c(Cl)cc(F)c(-n2c(=O)cc(C(F)(F)F)n(C)c2=O)c1NC(=O)C(C#N)=Cc1ccccc1 [2-136]
[1]; 63 g ai/ha
  phytotoxicity rating SETVI: 10
[1]; 250 g ai/ha
  phytotoxicity rating SETVI: 40
[2]; 63 g ai/ha
  phytotoxicity rating DIGSA: 0
[2]; 250 g ai/ha
  phytotoxicity rating DIGSA: 10
[3]; 63 g ai/ha
  phytotoxicity rating CASOB: 0
[3]; 250 g ai/ha
  phytotoxicity rating CASOB: 40
[4]; 63 g ai/ha
  phytotoxicity rating IPOHE: 0
[4]; 250 g ai/ha
  phytotoxicity rating IPOHE: 100
[5]; 63 g ai/ha
  phytotoxicity rating CHEAL: 90
[5]; 250 g ai/ha
  phytotoxicity rating CHEAL: 100
[6]; 63 g ai/ha
  phytotoxicity rating ECHCG: 0
[6]; 250 g ai/ha
  phytotoxicity rating ECHCG: 0
[7]; 63 g ai/ha
  phytotoxicity rating ABUTH: 80
[7]; 250 g ai/ha
  phytotoxicity rating ABUTH: 100
[8]; 63 g ai/ha
  phytotoxicity rating CORN (crop damage): 0
[8]; 250 g ai/ha
  phytotoxicity rating CORN (crop damage): 0
[9]; 63 g ai/ha
  phytotoxicity rating RICE (crop damage): 0
[9]; 250 g ai/ha
  phytotoxicity rating RICE (crop damage): 10
[10]; 63 g ai/ha
  phytotoxicity rating AMARE: 40
[10]; 250 g ai/ha
  phytotoxicity rating AMARE: 90
[11]; 63 g ai/ha
  SETVI phytotoxicity rating: 20
[11]; 250 g ai/ha
  SETVI phytotoxicity rating: 30
[12]; 63 g ai/ha
  DIGSA phytotoxicity rating: 0
[12]; 250 g ai/ha
  DIGSA phytotoxicity rating: 20
[13]; 63 g ai/ha
  CASOB phytotoxicity rating: 60
[13]; 250 g ai/ha
  CASOB phytotoxicity rating: 100
[14]; 63 g ai/ha
  IPOHE phytotoxicity rating: 80
[14]; 250 g ai/ha
  IPOHE phytotoxicity rating: 100
[15]; 63 g ai/ha
  AMARE phytotoxicity rating: 100
[15]; 250 g ai/ha
  AMARE phytotoxicity rating: 100
[16]; 63 g ai/ha
  CHEAL phytotoxicity rating: 95
[16]; 250 g ai/ha
  CHEAL phytotoxicity rating: 100
[17]; 63 g ai/ha
  ECHCG phytotoxicity rating: 0
[17]; 250 g ai/ha
  ECHCG phytotoxicity rating: 10
[18]; 63 g ai/ha
  ABUTH phytotoxicity rating: 100
[18]; 250 g ai/ha
  ABUTH phytotoxicity rating: 100
[19]; 63 g ai/ha
  CORN phytotoxicity rating (crop damage): 15
[19]; 250 g ai/ha
  CORN phytotoxicity rating (crop damage): 10
[20]; 63 g ai/ha
  RICE phytotoxicity rating (crop damage): 5
[20]; 250 g ai/ha
  RICE phytotoxicity rating (crop damage): 10
